# In patent US12564193B2, “Isoxazoline-substituted benzamide derivative, and preparation method therefor and use thereof” (SHANDONG UNITED PESTICIDE INDUSTRY CO., LTD., priority 2020, dated 2026):
# Read-outs that look alike come from different tables or passages of the source.
# How the values were obtained:
# Assay type in all cases: in vivo
# [1] = system: Frankliniella occidentalis; test: Insecticidal activity, spray on pre-infested radish plants: Frankliniella occidentalis; conditions: for pest or weed control at 1 ppm / pest or weed control at 10 ppm / pest or weed control at 25 ppm: Frankliniella occidentalis, 144 h, read-out: fatality rate on Frankliniella occidentalis; for Fatality rate on Frankliniella occidentalis (%): Table 3
# How it was run: (§1)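 Radish plants (12-15 days), 30-40 pests/plant via leaf cutting, soil sand-covered; spray compound in acetone/methanol/DMSO; dry 1 h; mesh cover; 25° C, 70% RH, 6 d; visual mortality; three replicates.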
# [2] = system: Plutella xylostella; test: Insecticidal activity, spray on pre-infested radish plants: Plutella xylostella; conditions: for pest or weed control at 0.1 ppm / pest or weed control at 1 ppm / pest or weed control at 10 ppm: Plutella xylostella, 144 h, read-out: fatality rate on Plutella xylostella; for Fatality rate on Plutella xylostella (%): Table 3
# How it was run: as §1
# [3] = system: Pieris rapae; test: Insecticidal activity, spray on pre-infested radish plants: Pieris rapae; conditions: 144 h, read-out: fatality rate on Pieris rapae
# How it was run: (§2)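 Radish plants 12–15 days old, each pre-infested with 30–40 larvae, were sprayed with compound dissolved in a suitable solvent, in triplicate. Plants were held at 25 °C and 70% RH for 6 days. Mortality was then scored visually.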
# [4] = system: Mythimna separata; test: Insecticidal activity, spray on pre-infested radish plants: Mythimna separata; conditions: for pest or weed control at 0.1 ppm / pest or weed control at 1 ppm / pest or weed control at 10 ppm: Mythimna separata, 144 h, read-out: fatality rate on Mythimna separata; for Fatality rate on Mythimna separata (%): Table 3
# How it was run: as §1
# [5] = system: Spodoptera litura; test: Insecticidal activity, spray on pre-infested radish plants: Spodoptera litura; conditions: 144 h, read-out: fatality rate on Spodoptera litura
# How it was run: as §1
# [6] = system: Chilo suppressalis; test: Insecticidal activity, spray on pre-infested radish plants: Chilo suppressalis; conditions: for pest or weed control at 0.1 ppm / pest or weed control at 1 ppm / pest or weed control at 10 ppm: Chilo suppressalis, 144 h, read-out: fatality rate on Chilo suppressalis; for Fatality rate on Chilo suppressalis (%): Table 3
# How it was run: as §1
# [7] = system: Cnaphalocrocis medinalis; test: Insecticidal activity, spray on pre-infested radish plants: Cnaphalocrocis medinalis; conditions: 144 h, read-out: fatality rate on Cnaphalocrocis medinalis
# How it was run: as §2
# [8] = system: Tetranychus cinnabarinus; test: Acaricidal activity, slide immersion of female adult mites: Tetranychus cinnabarinus; conditions: read-out: fatality rate on Tetranychus cinnabarinus
# How it was run: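 Female adult mites stuck dorsally on tape on slides (4 rows of 10), dipped 5 s in test solution, excess blotted, incubated 24 h. Mites with immobile feet on brush touch scored dead; fatality rate calculated.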
# [9] = dose 1 ppm, immersion 5 seconds, checked after 24 hours
# [10] = dose 10 ppm, immersion 5 seconds, checked after 24 hours
# [11] = dose 25 ppm, immersion 5 seconds, checked after 24 hours
smiles,measurement,setting,value
Cc1cc(C2=NOC(c3cc(F)c(F)c(F)c3)(C(F)(F)F)C2)ccc1C(=O)NCCc1ccc(Cl)nc1 (stereo not drawn) [Compound 16],pest or weed control at 1 ppm,"[1]; dose 1 ppm, spray, 6 days",> 80%
same,pest or weed control at 10 ppm,"[1]; dose 10 ppm, spray, 6 days",> 80%
same,pest or weed control at 25 ppm,"[1]; dose 25 ppm, spray, 6 days",> 80%
same,pest or weed control at 0.1 ppm,"[2]; dose 0.1 ppm, spray, 6 days",> 80%
same,pest or weed control at 1 ppm,"[2]; dose 1 ppm, spray, 6 days",> 80%
same,pest or weed control at 10 ppm,"[2]; dose 10 ppm, spray, 6 days",> 80%
same,pest or weed control at 0.1 ppm,"[3]; dose 0.1 ppm, spray, 6 days",> 80%
same,pest or weed control at 1 ppm,"[3]; dose 1 ppm, spray, 6 days",> 80%
same,pest or weed control at 10 ppm,"[3]; dose 10 ppm, spray, 6 days",> 80%
same,pest or weed control at 0.1 ppm,"[4]; dose 0.1 ppm, spray, 6 days",> 80%
same,pest or weed control at 1 ppm,"[4]; dose 1 ppm, spray, 6 days",> 80%
same,pest or weed control at 10 ppm,"[4]; dose 10 ppm, spray, 6 days",> 80%
same,pest or weed control at 0.1 ppm,"[5]; dose 0.1 ppm, spray, 6 days",> 80%
same,pest or weed control at 1 ppm,"[5]; dose 1 ppm, spray, 6 days",> 80%
same,pest or weed control at 10 ppm,"[5]; dose 10 ppm, spray, 6 days",> 80%
same,pest or weed control at 0.1 ppm,"[6]; dose 0.1 ppm, spray, 6 days",> 80%
same,pest or weed control at 1 ppm,"[6]; dose 1 ppm, spray, 6 days",> 80%
same,pest or weed control at 10 ppm,"[6]; dose 10 ppm, spray, 6 days",> 80%
same,pest or weed control at 0.1 ppm,"[7]; dose 0.1 ppm, spray, 6 days",> 80%
same,pest or weed control at 1 ppm,"[7]; dose 1 ppm, spray, 6 days",> 80%
same,pest or weed control at 10 ppm,"[7]; dose 10 ppm, spray, 6 days",> 80%
same,pest or weed control at 1 ppm,[8]; [9],> 80%
same,pest or weed control at 10 ppm,[8]; [10],> 80%
same,pest or weed control at 25 ppm,[8]; [11],> 80%
"Cc1cc(C2=NOC(c3cc(Cl)c(F)c(Cl)c3)(C(F)(F)F)C2)ccc1C(=O)NCc1ncc(C(F)(F)F)cc1Cl (stereo not drawn) [Compound 9, N-((3-chloro-5-(trifluoromethyl)pyridin-2-yl)methyl)-4-(5-(3,5-dichloro-4-fluorophenyl)-5-(trifluoromethyl)-4,5-dihydroisoxazol-3-yl)-2-methylbenzamide]",Fatality rate on Frankliniella occidentalis (%),[1]; 1 ppm,95%
same,Fatality rate on Frankliniella occidentalis (%),[1]; 10 ppm,100%
same,Fatality rate on Frankliniella occidentalis (%),[1]; 25 ppm,100%
same,pest or weed control at 1 ppm,[1],> 80%
same,pest or weed control at 10 ppm,[1],> 80%
same,pest or weed control at 25 ppm,[1],> 80%
same,Fatality rate on Plutella xylostella (%),[2]; 0.1 ppm,100%
same,Fatality rate on Plutella xylostella (%),[2]; 1 ppm,100%
same,Fatality rate on Plutella xylostella (%),[2]; 10 ppm,100%
same,pest or weed control at 0.1 ppm,[2],> 80%
same,pest or weed control at 1 ppm,[2],> 80%
same,pest or weed control at 10 ppm,[2],> 80%
same,pest or weed control at 0.1 ppm,[3],> 80%
same,pest or weed control at 1 ppm,[3],> 80%
same,pest or weed control at 10 ppm,[3],> 80%
same,Fatality rate on Mythimna separata (%),[4]; 0.1 ppm,100%
same,Fatality rate on Mythimna separata (%),[4]; 1 ppm,100%
same,Fatality rate on Mythimna separata (%),[4]; 10 ppm,100%
same,pest or weed control at 0.1 ppm,[4],> 80%
same,pest or weed control at 1 ppm,[4],> 80%
same,pest or weed control at 10 ppm,[4],> 80%
same,pest or weed control at 0.1 ppm,[5],> 80%
same,pest or weed control at 1 ppm,[5],> 80%
same,pest or weed control at 10 ppm,[5],> 80%
same,Fatality rate on Chilo suppressalis (%),[6]; 0.1 ppm,95%
same,Fatality rate on Chilo suppressalis (%),[6]; 1 ppm,100%
same,Fatality rate on Chilo suppressalis (%),[6]; 10 ppm,100%
same,pest or weed control at 0.1 ppm,[6],> 80%
same,pest or weed control at 1 ppm,[6],> 80%
same,pest or weed control at 10 ppm,[6],> 80%
same,pest or weed control at 0.1 ppm,[7],> 80%
same,pest or weed control at 1 ppm,[7],> 80%
same,pest or weed control at 10 ppm,[7],> 80%
same,pest or weed control at 1 ppm,[8]; 24 h,> 80%
same,pest or weed control at 10 ppm,[8]; 24 h,> 80%
same,pest or weed control at 25 ppm,[8]; 24 h,> 80%
"Cc1cc(C2=NOC(c3cc(F)c(F)c(F)c3)(C(F)(F)F)C2)ccc1C(=O)NCc1ncc(C(F)(F)F)cc1Cl (stereo not drawn) [Compound 10, N-((3-chloro-5-(trifluoromethyl)pyridin-2-yl)methyl)-2-methyl-4-(5-(trifluoromethyl)-5-(3,4,5-trifluorophenyl)-4,5-dihydroisoxazol-3-yl)benzamide]",Fatality rate on Frankliniella occidentalis (%),[1]; 1 ppm,85%
same,Fatality rate on Frankliniella occidentalis (%),[1]; 10 ppm,100%
same,Fatality rate on Frankliniella occidentalis (%),[1]; 25 ppm,100%
same,pest or weed control at 1 ppm,"[1]; dose 1 ppm, spray, 6 days",> 80%
same,pest or weed control at 10 ppm,"[1]; dose 10 ppm, spray, 6 days",> 80%
same,pest or weed control at 25 ppm,"[1]; dose 25 ppm, spray, 6 days",> 80%
same,Fatality rate on Plutella xylostella (%),[2]; 0.1 ppm,90%
same,Fatality rate on Plutella xylostella (%),[2]; 1 ppm,100%
same,Fatality rate on Plutella xylostella (%),[2]; 10 ppm,100%
same,pest or weed control at 0.1 ppm,"[2]; dose 0.1 ppm, spray, 6 days",> 80%
same,pest or weed control at 1 ppm,"[2]; dose 1 ppm, spray, 6 days",> 80%
same,pest or weed control at 10 ppm,"[2]; dose 10 ppm, spray, 6 days",> 80%
same,pest or weed control at 0.1 ppm,"[3]; dose 0.1 ppm, spray, 6 days",> 80%
same,pest or weed control at 1 ppm,"[3]; dose 1 ppm, spray, 6 days",> 80%
same,pest or weed control at 10 ppm,"[3]; dose 10 ppm, spray, 6 days",> 80%
same,Fatality rate on Mythimna separata (%),[4]; 0.1 ppm,85%
same,Fatality rate on Mythimna separata (%),[4]; 1 ppm,100%
same,Fatality rate on Mythimna separata (%),[4]; 10 ppm,100%
same,pest or weed control at 0.1 ppm,"[4]; dose 0.1 ppm, spray, 6 days",> 80%
same,pest or weed control at 1 ppm,"[4]; dose 1 ppm, spray, 6 days",> 80%
same,pest or weed control at 10 ppm,"[4]; dose 10 ppm, spray, 6 days",> 80%
same,pest or weed control at 0.1 ppm,"[5]; dose 0.1 ppm, spray, 6 days",> 80%
same,pest or weed control at 1 ppm,"[5]; dose 1 ppm, spray, 6 days",> 80%
same,pest or weed control at 10 ppm,"[5]; dose 10 ppm, spray, 6 days",> 80%
same,Fatality rate on Chilo suppressalis (%),[6]; 0.1 ppm,85%
same,Fatality rate on Chilo suppressalis (%),[6]; 1 ppm,100%
same,Fatality rate on Chilo suppressalis (%),[6]; 10 ppm,100%
same,pest or weed control at 0.1 ppm,"[6]; dose 0.1 ppm, spray, 6 days",> 80%
same,pest or weed control at 1 ppm,"[6]; dose 1 ppm, spray, 6 days",> 80%
same,pest or weed control at 10 ppm,"[6]; dose 10 ppm, spray, 6 days",> 80%
same,pest or weed control at 0.1 ppm,"[7]; dose 0.1 ppm, spray, 6 days",> 80%
same,pest or weed control at 1 ppm,"[7]; dose 1 ppm, spray, 6 days",> 80%
same,pest or weed control at 10 ppm,"[7]; dose 10 ppm, spray, 6 days",> 80%
same,pest or weed control at 1 ppm,[8]; [9],> 80%
same,pest or weed control at 10 ppm,[8]; [10],> 80%
same,pest or weed control at 25 ppm,[8]; [11],> 80%
